Measurements published in patent US20240050399A1, “PHARMACEUTICAL COMPOSITIONS, COMPRISING A COMBINATION OF SELECT CARRIERS AND […] ANTIPATHOGENS” (EpitoGenesis, Inc., priority 2020, published 2024).
In brackets after ≈: the same amount, converted by molar mass.

Tested on: SARS-CoV-2 USA-WA1/2020
Assay: Neutralization assay of SARS-CoV-2 with EGCG, quantified by Avicel plaque reduction assay on VeroE6 cells
Assay type: cell-based
Conditions: for IC50: normalized against control (virus in DMEM)

## O=C(O[C@@H]1Cc2c(O)cc(O)cc2O[C@@H]1c1cc(O)c(O)c(O)c1)c1cc(O)c(O)c(O)c1 [EGCG, epigallocatechin gallate]
FIG. 1, plaque reduction
  in vitro antiviral activity on vero cells infected with SARS-CoV-2: strong in vitro antiviral activity
Dilution series 1
  IC50: 42.65 µg/mL (≈ 93 µM)
Dilution series 2
  IC50: 32.89 µg/mL (≈ 71.8 µM)
Dilution series 3
  IC50: 36.09 µg/mL (≈ 78.7 µM)
